This note sets out measurements from patent US20100004238A1, “FUSED HETEROCYCLIC COMPOUND” (TAKEDA PHARMACEUTICAL COMPANY LIMITED, priority 2006, published 2010).

Test [1] concerns the target T1, EGFR intracellular domain (EGFR kinase) (Homo sapiens, UniProt P00533).
T1 construct: made in house; host or cells: SF-21 insect cells infected with recombinant baculovirus BAC-EGFR
Nature of the test: Determination of EGFR kinase inhibitory activity. The class given is biochemical. The conditions noted are these: compound at 1.0 μM, poly-Glu:Tyr (4:1) substrate, [γ-32P]ATP; for inhibition at 1 µM: read-out: inhibitory rate (%) at 1.0 μM. How it is done: Human EGFR gene was cloned by RT-PCR using total RNA prepared from A431 cells as a template. The primer used for RT-PCR was prepared in consideration of the information of nucleotide sequence (Genbank Accession No. X00588) of EGFR gene by adding a nucleotide sequence encoding DYKDDDD peptide and a restriction enzyme recognition sequence to a nucleotide sequence (corresponding to 2191-3819 of Genbank Accession No. X00588 as a base, 669-1210 amino acids of Genbank Accession No. NP_005219 as a protein) encoding the EGFR intracellular domain region such that the protein contains an N-terminal DYKDDDD peptide tag. The primer nucleotide sequence is shown below.
(§1) SF-21 cells were sown at 1×10^6 cells/mL in Sf-900II SFM medium (1 L, Invitrogen) containing 10% fetal bovine serum (trace), 50 mg/L gentamicin (Invitrogen) and 0.1% Pluronic F-68 (Invitrogen), and shaking culture was performed using a 2 L volume Erlenmeyer flask at 27° C., 100 rpm. After culturing for 24 hrs, recombinant baculovirus BAC-EGFR (13.4 mL) was added, and the mixture was further cultured for 3 days. The culture medium was centrifuged at 2,000 rpm for 5 min to give virus-infected cells. The infected cells were washed with a phosphate buffered saline (Invitrogen), centrifuged under the same conditions, and the cells were preserved at −80° C. The cryopreserved cells were thawed in ice, suspended in buffer A (50 mM Tris buffer (30 mL, pH 7.4) containing 20% glycerol, 0.15 M NaCl) supplemented with Complete Protease Inhibitor (Boehringer), and ruptured 3 times with a Polytron homogenizer (Kinematica) at 20,000 rpm for 30 sec. The ruptured solution was clarified by centrifugation at 40,000 rpm for 30 min, and filtered with a 0.45 μm filter. The filtrate was passed through a column packed with Anti-FLAG M2 Affinity Gel (4 mL, Sigma-Aldrich) at a flow rate of about 0.5 mL/min. The column was washed with buffer A, and eluted with buffer A containing 100 μg/mL of FLAG peptide. The eluent was concentrated with Vivaspin 20 (Vivascience) having a molecular weight cut off of 30K. The concentrate was purified by gel filtration using Hi Load 16/60 Superdex 200 pg (GE Healthcare Bioscience) equilibrated with buffer A. The fractions containing EGFR intracellular domain were collected and cryopreserved at −80° C.
(§2) EGFR kinase reaction was performed using a 96 well plate. As a buffer for kinase reaction, a buffer having a composition of 50 mM Tris-HCl (pH 7.5), 5 mM MnCl2, 2 mM dithiothreitol, 0.01% Tween-20 was used. The compound of the present invention was dissolved in dimethyl sulfoxide (DMSO), and diluted with the kinase reaction buffer so that DMSO concentration would be 0.1% during kinase reaction. This compound solution (10 μL) was mixed with a kinase reaction buffer (20 μL) containing EGFR intracellular domain (0.625 μg/mL) obtained in Experimental Example 2B and polypeptide substrate poly-Glu:Tyr (4:1) (Sigma Ltd., 12.5 μg/mL), and the mixture was stood at room temperature for 5 min. Then, a kinase reaction buffer (20 μL) containing 125 μM ATP and 45 μCi/mL [γ-^32P]ATP was added, and the kinase reaction was initiated with 50 μL of the final reaction mixture. A kinase reaction was performed at room temperature for 10 min, and the kinase reaction was quenched by addition of 20% TCA solution (50 μL). The mixture after completion of the reaction was stood at room temperature for 30 min, and acid insoluble fractions in the mixture after completion of the reaction were collected in a 96 well GF/C filter plate (PerkinElmer) using a cell harvester (PerkinElmer). Thereafter, the filter containing the acid insoluble fractions was washed with 3% phosphoric acid solution. After washing, the filter plate was dried at 45° C. for 60 min, and 25 μL of MicroScinti 0 (PerkinElmer) was added. The radioactivity was measured using TopCount (PerkinElmer).
EGFR kinase inhibitory rate (%) of the test compound was calculated by the following formula: […]

Test [2] relates to human breast cancer cell BT-474. Nature of the test: Inhibitory action on breast cancer cell BT-474 proliferation in vitro. The class given is cell-based. The conditions noted are these: 120 h, BT-474 cells, cultured for 5 days with compound, SRB protein content. How it is done:
A suspension of human breast cancer cell BT-474 (100 μl (6,000 cells)) were plated in a 96-well microplate and cultured in an incubator (37° C., 5% carbon dioxide). On the following day, 100 μl of a solution of each test compound previously diluted serially in 2-fold, was added, and the cells were cultured for 5 days. After the culture medium containing the test compound was removed, the cells were washed and fixed with 50% trichloroacetic acid, after which a 0.4% (w/v) SRB dye solution (dissolved in 1% acetic acid) was added to stain as well as fix the cell protein (Skehan et al., Journal of the National Cancer Institute, Vol. 82, pp. 1107-1112, 1990). After washing with a 1% acetic acid solution, 100 μl of extract solution (10 mM, Tris buffer) was added to extract the dye and the absorbance was measured at a wavelength of 550 nm to quantify the amount of cells as protein content. Taking as 100% the protein content for the control group, which received no test compound solution, the ratio of the residual protein content for each treatment group was determined, and the compound concentration required to achieve 50% suppression of the residual cell content relative to the control (IC50 value) was calculated.

Test [3] addresses T2, HER2 intracellular domain (HER2 kinase) (Homo sapiens, UniProt P04626).
T2 construct: made in house; host or cells: SF-21 insect cells infected with recombinant baculovirus BAC-HER2
Nature of the test: Determination of HER2 kinase inhibitory activity. In kind it is biochemical. The conditions noted are these: compound at 1.0 μM, poly-Glu:Tyr (4:1) substrate, [γ-32P]ATP, read-out: inhibitory rate (%) at 1.0 μM. How it is done:
Human HER2 gene was cloned by RT-PCR using total RNA prepared from MCF7 cells as a template. The primer used for RT-PCR was prepared in consideration of the information of nucleotide sequence (Genbank Accession No. M11730) of HER2 gene by adding a nucleotide sequence encoding DYKDDDD peptide and a restriction enzyme recognition sequence to a nucleotide sequence (corresponding to 2176-3918 of Genbank Accession No. M11730 as a base, 676-1255 amino acids of Genbank Accession No. NP_004439 as a protein) encoding the HER2 intracellular domain region such that the protein contains an N-terminal DYKDDDD peptide tag. The primer nucleotide sequence is shown below.
as §1, with “hr,” for “hrs,”, “BAC-HER2” for “BAC-EGFR”, “HER2” for “EGFR”
as §2, with “HER2 kinase reaction” for “EGFR kinase reaction”, “buffer […] containing HER2” for “buffer (20 μL) containing EGFR”, “mL) containing HER2 intracellular domain” for “μL) containing EGFR intracellular domain”, “Experimental Example 1B and polypeptide” for “Experimental Example 2B and polypeptide”, “TopCount (PerkinElmer). HER2 kinase inhibitory rate (%) of the test compound was calculated by the following formula: […]” for “TopCount (PerkinElmer).”

T1 sequence (P00533 669-1210): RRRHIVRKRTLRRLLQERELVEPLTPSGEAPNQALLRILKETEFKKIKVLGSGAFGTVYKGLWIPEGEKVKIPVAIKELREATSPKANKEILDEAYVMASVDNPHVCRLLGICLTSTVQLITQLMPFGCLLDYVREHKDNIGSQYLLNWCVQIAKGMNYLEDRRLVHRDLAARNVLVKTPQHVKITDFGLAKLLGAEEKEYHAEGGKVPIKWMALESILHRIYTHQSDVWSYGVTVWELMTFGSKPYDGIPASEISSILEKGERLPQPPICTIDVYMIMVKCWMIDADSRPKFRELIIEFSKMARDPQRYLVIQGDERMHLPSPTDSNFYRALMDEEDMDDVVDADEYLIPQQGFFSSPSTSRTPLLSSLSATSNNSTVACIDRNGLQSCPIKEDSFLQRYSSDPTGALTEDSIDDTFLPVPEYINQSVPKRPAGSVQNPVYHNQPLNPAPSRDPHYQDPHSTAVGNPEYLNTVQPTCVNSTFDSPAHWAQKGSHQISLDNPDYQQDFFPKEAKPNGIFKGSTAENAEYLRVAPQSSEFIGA
T2 sequence (P04626 676-1255): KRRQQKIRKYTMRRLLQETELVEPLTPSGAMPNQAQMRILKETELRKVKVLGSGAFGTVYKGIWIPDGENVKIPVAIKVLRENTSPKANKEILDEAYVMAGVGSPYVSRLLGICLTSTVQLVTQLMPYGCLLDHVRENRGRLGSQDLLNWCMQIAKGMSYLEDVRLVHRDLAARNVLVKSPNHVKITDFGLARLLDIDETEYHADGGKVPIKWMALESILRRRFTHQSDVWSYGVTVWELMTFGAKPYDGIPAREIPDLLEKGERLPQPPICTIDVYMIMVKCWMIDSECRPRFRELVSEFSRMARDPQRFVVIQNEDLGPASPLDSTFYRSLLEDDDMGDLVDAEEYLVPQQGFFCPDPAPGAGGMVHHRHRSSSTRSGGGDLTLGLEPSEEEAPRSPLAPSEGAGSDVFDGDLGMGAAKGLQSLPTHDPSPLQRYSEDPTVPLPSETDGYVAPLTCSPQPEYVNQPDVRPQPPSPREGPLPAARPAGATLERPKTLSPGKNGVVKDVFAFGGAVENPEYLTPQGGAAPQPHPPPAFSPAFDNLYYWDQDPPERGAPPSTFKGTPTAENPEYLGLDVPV

For orientation: IC50 means the concentration at which inhibition is half-maximal. As for `CS(=O)(=O)CC(=O)NCCn1ccc2ncnc(Nc3ccc(Oc4cccc5c4CC(=O)N5)c(Cl)c3)c21` [Example 6, N-{2-[4-({3-chloro-4-[(2-oxo-2,3-dihydro-1H-indol-4-yl)oxy]phenyl}amino)-5H-pyrrolo[3,2-d]pyrimidin-5-yl]ethyl}-2-(methylsulfonyl)acetamide], in test [1], the inhibition at 1 µM came to 100%. In addition, the IC50 in test [2] was less than 100 nM. On the same counts, the results for `CN1C(=O)Cc2c(Oc3ccc(Nc4ncnc5ccn(CCO)c45)cc3Cl)cccc21` [Example 8, 4-(2-chloro-4-{[5-(2-hydroxyethyl)-5H-pyrrolo[3,2-d]pyrimidin-4-yl]amino}phenoxy)-1-methyl-1,3-dihydro-2H-indol-2-one] are 100% and less than 100 nM. Take `OCCOCCn1ccc2ncnc(Nc3ccc(Oc4cccc5[nH]ccc45)c(Cl)c3)c21` [Example 16, 2-[2-(4-{[3-chloro-4-(1H-indol-4-yloxy)phenyl]amino}-5H-pyrrolo[3,2-d]pyrimidin-5-yl)ethoxy]ethanol]: the inhibition at 1 µM came to 99% in test [1] and 100% in test [3]. Take `Cn1ccc2ncnc(Nc3ccc(Oc4cccc5[nH]ccc45)c(Cl)c3)c21` [Example 22, N-[3-chloro-4-(1H-indol-4-yloxy)phenyl]-5-methyl-5H-pyrrolo[3,2-d]pyrimidin-4-amine]: the inhibition at 1 µM in test [1] came out at 98%. Further, the IC50 in test [2] is less than 100 nM. As for `CC(C)(CO)C(=O)NCCn1ccc2ncnc(Nc3ccc(Oc4ccc5ccsc5c4)c(Cl)c3)c21` [Example 53, N-[2-(4-{[4-(1-benzothiophen-6-yloxy)-3-chlorophenyl]amino}-5H-pyrrolo[3,2-d]pyrimidin-5-yl)ethyl]-3-hydroxy-2,2-dimethylpropanamide], the inhibition at 1 µM in test [1] came to 98%. Still for that read-out and setting: the value for `CS(=O)(=O)CC(=O)NCCn1ccc2ncnc(Nc3ccc(Oc4ccc5ccsc5c4)c(Cl)c3)c21` [Example 60, N-[2-(4-{[4-(1-benzothiophen-6-yloxy)-3-chlorophenyl]amino}-5H-pyrrolo[3,2-d]pyrimidin-5-yl)ethyl]-2-(methylsulfonyl)acetamide] was 99%; that for `CC(=O)NCCn1ccc2ncnc(Nc3ccc(Oc4cccc5sccc45)c(Cl)c3)c21` [Example 99, N-[2-(4-{[4-(1-benzothiophen-4-yloxy)-3-chlorophenyl]amino}-5H-pyrrolo[3,2-d]pyrimidin-5-yl)ethyl]acetamide] was 98%. With `CC(=O)NCCn1ccc2ncnc(Nc3ccc(Oc4cccc5sccc45)c(Cl)c3)c21` [Example 119, N-[2-(4-{[4-(1-benzothiophen-4-yloxy)-3-chlorophenyl]amino}-5H-pyrrolo[3,2-d]pyrimidin-5-yl)ethyl]acetamide methanesulfonate], the “inhibitory rate (%) at 1.0 μM” value in test [1] (methanesulfonate, 1 µM) was 99%.
